The supplement of paper PMC3621838
± gives the standard deviation of the averaged measurements.

Tested on: HEK293 NF-kB-luciferase reporter cells
Assay: NF-kB luciferase reporter activity, robust Z-score vs plate median (robust Z-score (log luminescence)); higher = stronger NF-kB reporter activation
Details: TNF 40 ng/mL; TNF treatment time 8.5 h; transfection time 72 h
Experimental: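 Primary screen of an Ambion Pre-miR miRNA mimic library (miRBase v8.0, 1.6 pmol/well, 384-well, duplicate) reverse-transfected into HEK293 cells stably expressing a 5x NF-kB firefly luciferase reporter. After 72 h the cells were treated with vehicle or TNF (40 ng/mL) for 8.5 h and luminescence was read (BriteLite). Raw luminescence was log-transformed and converted to a robust Z-score per plate: (x - plate median)/plate MAD. Sequence given is the mature miRNA strand of the double-stranded mimic.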

Going from AAAAGCUGGGUUGAGAGGGCGAA to AAAAUGGUUCCCUUUAGAGUGUU, the “NF-kB luciferase reporter activity” value falls from -0.74 ± 0.12 to -2.14 ± 0.057.

First: AAACAAACAUGGUGCACUUCUUU
Second: AAACCGUUACCAUUACUGAGUUU
The “NF-kB luciferase reporter activity” value of the first is lower: -0.235 ± 0.099 for the first, 0.947 ± 0.054 for the second.

Compared with AAAGCGCUUCCCUUCAGAGUGU, AAAGCGCUUCCCUUUGCUGGA is higher in “NF-kB luciferase reporter activity” value: 0.467 ± 0.04 for the first, 0.608 ± 0.072 for the second.

Going from AAAGCGCUUCUCUUUAGAGGA to AAAGUGCAUCCUUUUAGAGGUUU, the “NF-kB luciferase reporter activity” value falls from 0.82217 ± 0.00059 to -0.425 ± 0.04.

Going from AAAGUGCAUCCUUUUAGAGUGUUAC to AAAGUGCAUCUUUUUAGAGGAU, the “NF-kB luciferase reporter activity” value falls from -0.116 ± 0.027 to -0.416 ± 0.079.

Compared with AAAGUGCCUCCUUUUAGAGUGU, AAAGUGCUGCGACAUUUGAGCGU is lower in “NF-kB luciferase reporter activity” value: -0.561 ± 0.048 for the first, -1.06 ± 0.19 for the second.

Compared with AAAGUGCUUCCCUUUGGACUGU, AAAGUGCUUCCUUUUAGAGGC is lower in “NF-kB luciferase reporter activity” value: -0.57 ± 0.16 for the first, -0.83 ± 0.031 for the second.

AAAGUGCUUCCUUUUAGAGGG and AAAGUGCUUCCUUUUAGAGGGUU are within error of each other in “NF-kB luciferase reporter activity” value: -0.578 ± 0.11 for the first, -0.653 ± 0.033 for the second.

Going from AAAGUGCUUCCUUUUUGAGGG to AAAGUGCUUCUCUUUGGUGGGUU, the “NF-kB luciferase reporter activity” value rises from -0.497 ± 0.23 to -0.144 ± 0.11.

Compared with AACACACCUGGUUAACCUCUUU, AACAUUCAUUGUUGUCGGUGGGUU is lower in “NF-kB luciferase reporter activity” value: 0.254 ± 0.15 for the first, -0.631 ± 0.082 for the second.

AACGCACUUCCCUUUAGAGUGU and AACGCGCUUCCCUAUAGAGGG are within error of each other in “NF-kB luciferase reporter activity” value: 0.826 ± 0.073 for the first, 0.629 ± 0.15 for the second.

AACUGGCCCUCAAAGUCCCGCUUU and AACUGGCCUACAAAGUCCCAG are within error of each other in “NF-kB luciferase reporter activity” value: -0.934 ± 0.19 for the first, -1.18 ± 0.17 for the second.

Going from AAGUGCUGUCAUAGCUGAGGUC to AAGUGCUUCCUUUUAGAGGGUU, the “NF-kB luciferase reporter activity” value falls from -0.185 ± 0.21 to -1.29 ± 0.042.

First: AAUAAUACAUGGUUGAUCUUU
Second: AAUAUAACACAGAUGGCCUGU
The “NF-kB luciferase reporter activity” value of the first is lower: 0.0536 ± 0.043 for the first, 0.874 ± 0.29 for the second.

Compared with AAUCAUACACGGUUGACCUAUU, AAUCAUACAGGGACAUCCAGUU is higher in “NF-kB luciferase reporter activity” value: -0.0786 ± 0.0065 for the first, 0.117 ± 0.12 for the second.

Going from AAUCCUUGGAACCUAGGUGUGAGU to AAUCCUUUGUCCCUGGGUGAGA, the “NF-kB luciferase reporter activity” value rises from 0.0708 ± 0.057 to 0.638 ± 0.062.

Going from AAUCGUACAGGGUCAUCCACUU to AAUUGCACUUUAGCAAUGGUGA, the “NF-kB luciferase reporter activity” value falls from 0.638 ± 0.17 to -0.707 ± 0.14.

Compared with ACAAAGUGCUUCCCUUUAGAGU, ACAAAGUGCUUCCCUUUAGAGUGU is lower in “NF-kB luciferase reporter activity” value: -0.471 ± 0.097 for the first, -0.799 ± 0.018 for the second.

Compared with ACAUAGAGGAAAUUCCACGUUU, ACUAGACUGAAGCUCCUUGAGG is higher in “NF-kB luciferase reporter activity” value: -0.459 ± 0.0079 for the first, 0.7434 ± 0.0017 for the second.

Compared with ACUCAAAAUGGGGGCGCUUUCC, ACUGCCCUAAGUGCUCCUUCU is lower in “NF-kB luciferase reporter activity” value: 0.907 ± 0.14 for the first, 0.608 ± 0.041 for the second.

Going from ACUUCACCUGGUCCACUAGCCGU to ACUUUAACAUGGAAGUGCUUUCU, the “NF-kB luciferase reporter activity” value falls from 0.86 ± 0.097 to 0.272 ± 0.026.

First: AGACCCUGGUCUGCACUCUAU
Second: AGAGGCUGGCCGUGAUGAAUUC
The “NF-kB luciferase reporter activity” value of the first is higher: 0.7 ± 0.065 for the first, -1.96 ± 0.079 for the second.

AGAGGUAGUAGGUUGCAUAGU and AGAGGUAUAGGGCAUGGGAAAA are within error of each other in “NF-kB luciferase reporter activity” value: -1.24 ± 0.038 for the first, -1.06 ± 0.24 for the second.

Going from AGAUCGACCGUGUUAUAUUCGC to AGCUCGGUCUGAGGCCCCUCAG, the “NF-kB luciferase reporter activity” value falls from -0.0562 ± 0.026 to -1.1 ± 0.24.

Going from AGGACCUGCGGGACAAGAUUCUU to AGGGCCCCCCCUCAAUCCUGU, the “NF-kB luciferase reporter activity” value falls from 1.11 ± 0.19 to 0.259 ± 0.1.

First: AGGUUACCCGAGCAACUUUGCA
Second: AGUGACAUCACAUAUACGGCAGC
The “NF-kB luciferase reporter activity” value of the first is higher: -0.0618 ± 0.016 for the first, -2.733 ± 0.0029 for the second.

First: AGUGGGGAACCCUUCCAUGAGGA
Second: AUAAGACGAGCAAAAAGCUUGU
The “NF-kB luciferase reporter activity” value of the first is lower: -2.85 ± 0.1 for the first, -1.62 ± 0.032 for the second.

Compared with AUCACACAAAGGCAACUUUUGU, AUCAGCAAACAUUUAUUGUGUG is lower in “NF-kB luciferase reporter activity” value: -0.131 ± 0.049 for the first, -0.5 ± 0.044 for the second.

First: AUCAUAGAGGAAAAUCCACGU
Second: AUCAUAGAGGAAAAUCCAUGUU
The “NF-kB luciferase reporter activity” value of the first is higher: -0.743 ± 0.14 for the first, -1.03 ± 0.066 for the second.

Going from AUCAUGAUGGGCUCCUCGGUGU to AUCCUUGCUAUCUGGGUGCUA, the “NF-kB luciferase reporter activity” value rises from -0.71 ± 0.099 to 0.413 ± 0.069.

Going from AUCGGGAAUGUCGUGUCCGCC to AUCGUGCAUCCCUUUAGAGUGUU, the “NF-kB luciferase reporter activity” value falls from 0.676 ± 0.033 to 0.437 ± 0.046.

Going from AUCGUGCAUCCUUUUAGAGUGU to AUGCACCUGGGCAAGGAUUCUG, the “NF-kB luciferase reporter activity” value rises from 0.331 ± 0.0088 to 1.14 ± 0.15.

AUUACAUGGCCAAUCUC and AUUCCUAGAAAUUGUUCAUA are within error of each other in “NF-kB luciferase reporter activity” value: 0.754 ± 0.24 for the first, 0.855 ± 0.032 for the second.

AUUCUGCAUUUUUAGCAAGU and AUUGACACUUCUGUGAGUAG are within error of each other in “NF-kB luciferase reporter activity” value: -0.325 ± 0.13 for the first, -0.474 ± 0.021 for the second.

CAAAGCGCUCCCCUUUAGAGGU and CAAAGCGCUUCCCUUUGGAGC are within error of each other in “NF-kB luciferase reporter activity” value: 0.254 ± 0.098 for the first, 0.305 ± 0.0055 for the second.

Compared with CAAAGCGCUUCUCUUUAGAGUG, CAAAGUGCCUCCCUUUAGAGUGU is higher in “NF-kB luciferase reporter activity” value: 0.143 ± 0.13 for the first, 0.811 ± 0.028 for the second.

Going from CAACGGAAUCCCAAAAGCAGCU to CACCCGUAGAACCGACCUUGCG, the “NF-kB luciferase reporter activity” value falls from 1.2 ± 0.21 to 0.175 ± 0.09.

Compared with CACUCAGCCUUGAGGGCACUUUC, CAGCAGCAAUUCAUGUUUUGAA is lower in “NF-kB luciferase reporter activity” value: 1.02 ± 0.045 for the first, 0.65 ± 0.09 for the second.

Compared with CAGCAGCACACUGUGGUUUGU, CAGUGCAAUAGUAUUGUCAAAGC is higher in “NF-kB luciferase reporter activity” value: 0.0663 ± 0.052 for the first, 0.85 ± 0.028 for the second.

Compared with CAGUGCAAUGAUGAAAGGGCAU, CAUCCCUUGCAUGGUGGAGGGU is lower in “NF-kB luciferase reporter activity” value: 1.237 ± 0.0041 for the first, 0.53 ± 0.0024 for the second.

Going from CAUCUGGAGGUAAGAAGCACUUU to CAUCUUACCGGACAGUGCUGGA, the “NF-kB luciferase reporter activity” value rises from -1.17 ± 0.072 to -0.895 ± 0.12.

CCACACCGUAUCUGACACUUU and CCACUGCCCCAGGUGCUGCUGG are within error of each other in “NF-kB luciferase reporter activity” value: 0.0155 ± 0.04 for the first, -0.0587 ± 0.18 for the second.

CCCAGAUAAUGGCACUCUCAA and CCCAGUGUUUAGACUAUCUGUUC are within error of each other in “NF-kB luciferase reporter activity” value: -0.306 ± 0.12 for the first, -0.613 ± 0.27 for the second.

Going from CCUAGUAGGUGUCCAGUAAGUGU to CCUCUAGAUGGAAGCACUGUCU, the “NF-kB luciferase reporter activity” value rises from 0.432 ± 0.025 to 0.749 ± 0.033.
